The record followed here is PMC7933930, “Development of a small molecule that corrects misfolding and increases secretion of Z α1‐antitrypsin” (EMBO Molecular Medicine, 2021).

For one series, the system named is α1‐antitrypsin. Description: Equilibrium unfolding in guanidinium hydrochloride with bis‐ANS. It counts as biochemical, human. As to conditions: 50 µM GSK716, guanidinium hydrochloride; ~ 1.3 M in its absence. The source says: Polymerisation of α1‐antitrypsin involves transition through a transient intermediate state known as M*, that is readily populated by the Z variant (Dafforn et al, 1999; Knaupp et al, 2010). The M* conformational ensemble appears to be a distinct species between the native state conformation and that of the final polymer. One of the hallmarks of M* is its recognition by environment‐sensitive fluorescent reporter dyes. Thermal shift assays that make use of the dye SYPRO Orange report the stability of the protein native state against heat‐induced unfolding. […] Native state stability can also be probed by equilibrium unfolding using chemical denaturants, where a peak in bis‐ANS fluorescence corresponds with a maximally populated unfolding intermediate (James & Bottomley, 1998). […] The association of GSK716 induced a marked quenching and blue‐shift of the α1‐antitrypsin intrinsic tryptophan fluorescence spectrum (Fig 4D, inset). The rate of change in fluorescence during association of 10µM GSK716 was proportional to the propensity of α1‐antitrypsin mutants to form polymers in vivo: inert (M), mild (S), moderate (Baghdad) and severe (Z) α1‐antitrypsin (Fig 4D, top and bottom). […]

The target in another series is Serotonin transporter (Homo sapiens, UniProt P31645). The series is described as follows: Off‐target panel: Serotonin transporter. It counts as cell-based. The method, then:
(§1) GSK716 selectivity and PK properties were profiled in order to investigate the suitability of GSK716 for progression into in vivo studies and the potential for taking it forward as a clinical candidate for testing in humans. Since GSK716 results in loss of inhibitory activity of α1‐antitrypsin, the effect of the compound was assessed on other closely related serpins. […] Furthermore, there were no off‐target effects in a panel of assays considered predictive of known safety liabilities that precluded further development of GSK716 (Table EV1).

Another series has as its target Histamine H1 (Homo sapiens, UniProt P35367). Description: Off‐target panel: Histamine H1 (DRX). It counts as cell-based. As to conditions: Antagonist, read-out: Mean (PXC50) (converted). The procedure:
as §1

For another series, the target named is T1, Muscarinic M1 (Homo sapiens, UniProt P11229).
T1 sequence (P11229 1-460): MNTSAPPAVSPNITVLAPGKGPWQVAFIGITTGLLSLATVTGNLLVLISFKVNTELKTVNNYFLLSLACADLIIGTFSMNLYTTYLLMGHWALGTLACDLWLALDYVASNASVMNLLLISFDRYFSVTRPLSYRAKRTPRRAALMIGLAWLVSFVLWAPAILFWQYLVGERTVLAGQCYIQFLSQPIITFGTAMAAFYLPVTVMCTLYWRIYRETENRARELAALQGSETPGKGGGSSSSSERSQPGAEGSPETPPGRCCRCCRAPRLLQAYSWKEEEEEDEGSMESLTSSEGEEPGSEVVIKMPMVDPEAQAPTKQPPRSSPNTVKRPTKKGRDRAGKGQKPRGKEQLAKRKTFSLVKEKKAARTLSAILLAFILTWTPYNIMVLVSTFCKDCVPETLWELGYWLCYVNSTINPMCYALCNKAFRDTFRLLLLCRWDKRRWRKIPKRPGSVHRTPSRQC
The series is described as follows: Off‐target panel: Muscarinic M1 (DRX). It counts as cell-based. The method, then:
as §1

The next series concerns the target NMDA (NR2B) (Homo sapiens, UniProt Q05586+Q13224). Description: Off‐target panel: NMDA (NR2B). It counts as cell-based. The procedure: as §1
Series [1] concerns the target L-type Ca channel (CaV1.2) (Homo sapiens, UniProt Q13936). The series is described as follows: in vitro. It counts as cell-based. The procedure:
as §1

Sequence of NMDA (NR2B) (Q13224 27-1484, species assumed, other chains not shown): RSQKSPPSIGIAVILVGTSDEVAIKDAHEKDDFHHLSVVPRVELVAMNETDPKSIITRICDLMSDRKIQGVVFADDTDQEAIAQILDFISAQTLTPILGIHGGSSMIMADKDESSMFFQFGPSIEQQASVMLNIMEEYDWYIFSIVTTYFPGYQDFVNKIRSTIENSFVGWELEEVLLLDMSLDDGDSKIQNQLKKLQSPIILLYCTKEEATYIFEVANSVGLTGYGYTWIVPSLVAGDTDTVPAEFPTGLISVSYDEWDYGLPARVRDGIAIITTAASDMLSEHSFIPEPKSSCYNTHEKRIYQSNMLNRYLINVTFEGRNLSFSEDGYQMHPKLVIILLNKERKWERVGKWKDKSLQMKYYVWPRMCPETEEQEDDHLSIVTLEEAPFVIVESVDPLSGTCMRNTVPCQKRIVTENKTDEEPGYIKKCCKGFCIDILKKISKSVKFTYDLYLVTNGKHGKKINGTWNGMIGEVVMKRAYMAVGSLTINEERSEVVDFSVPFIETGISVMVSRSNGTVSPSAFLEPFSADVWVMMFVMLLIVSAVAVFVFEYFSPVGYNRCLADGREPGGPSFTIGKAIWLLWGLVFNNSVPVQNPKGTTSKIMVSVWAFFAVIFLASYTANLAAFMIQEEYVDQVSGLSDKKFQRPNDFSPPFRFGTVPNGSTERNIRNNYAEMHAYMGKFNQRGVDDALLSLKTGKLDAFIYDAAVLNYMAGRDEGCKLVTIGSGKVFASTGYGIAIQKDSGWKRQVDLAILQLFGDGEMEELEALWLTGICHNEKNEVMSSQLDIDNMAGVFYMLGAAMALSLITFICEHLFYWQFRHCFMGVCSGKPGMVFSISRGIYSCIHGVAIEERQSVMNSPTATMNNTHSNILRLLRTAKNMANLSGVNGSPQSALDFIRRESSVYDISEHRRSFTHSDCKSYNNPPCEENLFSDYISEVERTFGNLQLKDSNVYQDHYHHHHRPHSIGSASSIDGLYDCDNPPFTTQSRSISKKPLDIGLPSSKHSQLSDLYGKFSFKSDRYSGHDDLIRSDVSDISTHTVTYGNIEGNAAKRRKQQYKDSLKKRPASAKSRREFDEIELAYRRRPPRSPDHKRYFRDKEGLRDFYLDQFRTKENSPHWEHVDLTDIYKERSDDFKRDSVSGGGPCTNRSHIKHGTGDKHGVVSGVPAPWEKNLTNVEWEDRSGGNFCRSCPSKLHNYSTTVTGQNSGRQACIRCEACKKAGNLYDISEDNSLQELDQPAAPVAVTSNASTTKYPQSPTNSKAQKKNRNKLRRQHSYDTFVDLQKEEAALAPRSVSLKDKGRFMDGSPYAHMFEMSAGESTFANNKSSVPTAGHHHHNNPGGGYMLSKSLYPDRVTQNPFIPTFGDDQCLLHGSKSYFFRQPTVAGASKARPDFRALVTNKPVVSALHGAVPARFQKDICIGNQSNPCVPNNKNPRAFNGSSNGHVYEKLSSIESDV
Sequence of Serotonin transporter (P31645 whole entry): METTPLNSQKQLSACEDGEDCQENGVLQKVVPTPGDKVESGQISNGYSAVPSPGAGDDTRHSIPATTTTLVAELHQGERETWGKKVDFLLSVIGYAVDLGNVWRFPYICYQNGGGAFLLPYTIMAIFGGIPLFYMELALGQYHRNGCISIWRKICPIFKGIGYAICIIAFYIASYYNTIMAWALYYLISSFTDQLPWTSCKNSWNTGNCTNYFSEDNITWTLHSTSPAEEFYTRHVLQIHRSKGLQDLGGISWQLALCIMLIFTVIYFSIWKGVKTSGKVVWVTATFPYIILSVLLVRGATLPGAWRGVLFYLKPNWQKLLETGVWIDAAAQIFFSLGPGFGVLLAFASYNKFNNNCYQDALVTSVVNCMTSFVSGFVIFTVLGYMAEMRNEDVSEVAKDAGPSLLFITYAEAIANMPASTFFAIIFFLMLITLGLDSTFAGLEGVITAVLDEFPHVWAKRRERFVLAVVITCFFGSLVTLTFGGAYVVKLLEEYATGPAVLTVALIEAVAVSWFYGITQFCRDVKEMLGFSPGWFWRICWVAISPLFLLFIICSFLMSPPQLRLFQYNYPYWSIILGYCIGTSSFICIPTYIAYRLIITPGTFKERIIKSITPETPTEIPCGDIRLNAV
Sequence of Histamine H1 (P35367 whole entry): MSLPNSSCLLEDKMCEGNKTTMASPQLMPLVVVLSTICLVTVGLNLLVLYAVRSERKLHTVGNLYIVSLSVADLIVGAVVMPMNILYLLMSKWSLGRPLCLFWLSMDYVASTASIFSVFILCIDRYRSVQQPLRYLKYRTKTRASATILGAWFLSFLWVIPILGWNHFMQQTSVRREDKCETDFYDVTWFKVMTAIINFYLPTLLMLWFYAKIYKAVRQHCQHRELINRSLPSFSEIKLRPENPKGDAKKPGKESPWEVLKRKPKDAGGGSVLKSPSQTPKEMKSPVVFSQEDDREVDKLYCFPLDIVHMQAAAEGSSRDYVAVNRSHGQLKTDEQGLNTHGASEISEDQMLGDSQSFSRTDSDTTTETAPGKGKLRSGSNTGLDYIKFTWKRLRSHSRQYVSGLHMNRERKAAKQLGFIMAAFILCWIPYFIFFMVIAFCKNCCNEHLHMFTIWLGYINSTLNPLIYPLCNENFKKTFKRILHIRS

For the compound `CCC[C@@H](NC(=O)c1cccc2c1CC(=O)N2)[C@@H](O)c1cccc(F)c1C` [GSK716], the “denaturant concentration at peak bis‐ANS fluorescence (maximally populated unfolding intermediate)” value with α1‐antitrypsin is ~ 1.9 M. Moreover, the IC50 against Serotonin transporter was more than 100 µM; at Histamine H1 it was 10 µM; at Muscarinic M1, more than 50.1 µM; against NMDA (NR2B) it was more than 50.1 µM; in series [1] it was less than 2.14 µM. For the same compound, the EC50 at Muscarinic M1 is more than 50.1 µM.
